According to patent US5498624A, “Selected pyrazolyl derivatives” (Monsanto Company, priority 1995, dated 1996):

Tests used:
Assay type in all cases: in vivo
[1] = tested on: Pseudocercosporella herpotrichoides var. tritici; assay: Wheat True Eyespot Foliar Protectant Treatment (WES Prot)
Description: A) Pathogen/Inoculum Production--Follows as per Example 4.
B) Host Propagation--Wheat seedlings, cv. Hart, are grown to the third leaf stage in a commercial soil preparation, "Metro Mix 200", amended with 100 gm/ft^3 slow release "Osmocote 14-14-1438 . A sufficient number of seeds are planted per pot (5 cm in diameter) in order to insure the production of 5 vigorous seedlings per pot. The plants are maintained in a growth chamber set at 21° C., 80% RH with a 12 hour photoperiod. Light intensity is set at 300 me/m^2 /sec.
C) Test Compound Preparation
1) Experimental compounds--Follows as per Example 1.
2) Controls and Standards--The commercial fungicide, prochloraz, applied at 20 and 5 ppm, is used as the standard for wheat eyespot control. Control treatments are sprayed only with the formulation solution.
D) Compound Application--Wheat plants are sprayed at the three leaf stage. The solution is foliarly applied to the basal stem area of the wheat using a Devilbiss Model 152 hand sprayer. The treated wheat is allowed to air dry at room temperature before being returned to a growth chamber. The growth chamber is set at 15° C., 85% RH and a 12 hour photoperiod. Light intensity is maintained at 300 me/m^2 /sec.
E) Inoculation/Incubation - The treated wheat plants are inoculated 24 hours after chemical treatment. Inoculation is done by spraying a 3×10^5 spores/ml suspension at the basal stem area of each plant. Approximately 1 ml of spore suspension is applied to each plant. Following inoculation, the basal stem area of the plants are covered with a 2-3 cm thick layer of fine vermiculite. The vermiculite is watered lightly and the plants returned to the growth room. The inoculated plants remain in the growth chamber for 4 weeks after which time they are evaluated for disease control.
F) Evaluation--Treatments are evaluated four weeks after inoculation. Disease assessment is based on the percent girdling of the stem base caused by an eyespot lesion. Five plants are rated per replicate. Phytotoxicity and growth effects are also noted at this time.
G) Data--All replicate data is recorded as a percent disease value. Treatment means are calculated and percent disease control is determined by the formula: (control mean--treatment mean)*100/control mean. The inoculated control treatment mean is used for this calculation. The percent protection values for the compounds of the present invention are as set out in the Table below.

Botrytis cinerea [2] = assay: Vine Grey Mold on Berries (VGM Prot); conditions: grape berries, inoculated 24 hours after treatment
Description: A) Pathogen/Inoculum Production--The grey mold fungus, Botrytis cinerea, is cultured on PDA at 20° C. and 12 hours fluorescent light until the radial growth is slightly less than the plate diameter. A 1×10^6spore/ml suspension in sterile water (0.05% Tween®20) is made by dislodging spores in a flooded plate, filtering out mycelium, and adjusting the concentration.
B) Host Preparation--Thompson or Red Flame seedless table grapes from local grocery stores are used. Grapes are washed first in room temperature soapy water solution (a few drops of detergent per gallon), and then surfaced sterilized in 70% ethanol for one minute, followed by two rinses in sterile water. Berries are chosen which still have stem (pedicel) attached.
1) Experimental compounds--Each of the compounds of the present invention are applied at 200, 50, and 20 ppm. Formulation is generally in 40% acetone, 59.95% water, and 0.05% Tween®20. Replication is 6 berries per treatment. Compound is pipetted onto berries at 1.0 ml/treatment (6 berries) in a sterile petri plate. After drying, each berry is transferred to an individual well in a 12-well tissue culture plate. Formulated materials, such as commercial preparations are generally applied using the formulation only (no acetone or surfactant added).
2) Controls and Standards--Three technical grade commercial standards are used, usually at 200 and 50 ppm; benomyl, iprodione, and vinclozolin. The test controls include a uninoculated, formulation treated set as well as an inoculated, formulation treated set.
D) Inoculation/Incubation--Each berry is inoculated with 0.2 ml of spore suspension, using a sterile pipet. Incubation is in the 12-well culture plates at 20° C., 12 hour photoperiod.
E) Test Execution--One day protectant--Berries are inoculated as described 24 hours after chemical treatment.
F) Evaluation--The test is rated 7-10 days after inoculation. Percent surface area infected with disease is determined for each replicate using the values of 0, 1, 2, 5, 10, 15, 20, 25, etc. through 100%. Treatment means are calculated and percent disease control is determined by the formula "(control mean--treatment mean)*100/control mean". The untreated/inoculated control treatment is used for this calculation. The resultant percent protection or percent disease control values for the compounds of the present invention are as set out in the Table below.

Botrytis cinerea [3] = assay: Vine Grey Mold on Berries (VGM Cur); conditions: grape berries, treated 24 hours after inoculation
Description: Vine Grey Mold on Berries (VGM Cur)--Assay is as set out above in EXAMPLE 11 except for step E) which is: Test Execution--In the curative test the berries are first inoculated as described, six per petri plate and placed in incubation. After 24 hours, the berries are temporarily removed from incubation, placed into 12-well tissue culture plates (one per well), treated, and then returned to incubation.

[4] = tested on: Erysiphe graminis f. sp. tritici; assay: Wheat Powdery Mildew Foliar Assay (WPM Prot)
Description: A) Pathogen/Inoculum Production--Leaf material infected with the wheat powdery mildew fungus, Erysiphe graminis f. sp. tritici, is maintained continuously on wheat seedlings, cv. Caldewell.
(B) Host Propagation, (C) Compound Preparation and (D) Compound Application follow as per Example 1.
(E) Inoculation/Incubation--Inoculation of the test plants takes place 24 hours after compound application. Inoculation is accomplished by gently shaking plants previously infected with the Erysiphe graminis f. sp. tritici fungus over the test plants. This process liberates a cloud of spores which effectively and uniformly fall onto the test plants. After inoculation the plants are returned to the environmental conditions under which they were grown.
(F) Evaluation and (G) Data follow as per Example 1. The percent protection values for the compounds of the present invention are as set out in the Table below.

[5] = 20 ppm foliar protectant, * = averaged value
[6] = 100 ppm foliar protectant, * = averaged value
[7] = 500 ppm foliar protectant, four weeks after inoculation

Compound	WES Prot percent disease control [1, 5] [%]	WES Prot percent disease control [1, 6] [%]	VGM Prot percent disease control (Botrytis cinerea [2]; 20 ppm, * = averaged value) [%]	VGM Prot percent disease control (Botrytis cinerea [2]; 50 ppm, * = averaged value) [%]	VGM Prot percent disease control (Botrytis cinerea [2]; 200 ppm) [%]	VGM Cur percent disease control (Botrytis cinerea [3]; 20 ppm) [%]	VGM Cur percent disease control (Botrytis cinerea [3]; 50 ppm) [%]	WPM Prot percent disease control [4, 5] [%]	WPM Prot percent disease control [4, 6] [%]	WES Prot percent disease control [1, 7] [%]	WPM Prot percent disease control ([4]; 500 ppm foliar protectant) [%]
C[C@@H]1CCC[C@H](c2ccccc2NC(=O)c2cn(C)nc2C(F)F)C1 (relative stereo) [Number 2, 1H-pyrazole-4-carboxamide, 3-(difluoromethyl)-1-methyl-N-[2-(-3-methylcyclohexyl)phenyl]-, cis-]	12	82	90	93	99	41	82	44	65	–	–
Cn1cc(C(=O)Nc2ccccc2[C@H]2CC[C@H](C)CC2)c(C(F)(F)F)n1 [Number 4, 1H-pyrazole-4-carboxamide, 1-methyl-N-[2-(4-methylcyclohexyl)phenyl]-3-(trifluoromethyl)-, trans-]	54	98	41	67	–	19	69	65	91	100	100
Cn1cc(C(=O)Nc2ccccc2[C@@H]2CCC[C@@H](C(F)(F)F)C2)c(C(F)F)n1 (relative stereo) [Number 6]	–	90	–	–	–	–	–	–	–	100	98
CC[C@H]1CC[C@@H](c2ccccc2NC(=O)c2cn(C)nc2C(F)F)CC1 [Number 1, 1H-pyrazole-4-carboxamide, 3-(difluoromethyl)-N-[2-(4-ethylcyclohexyl)phenyl]-1-methyl-, cis-]	29	79	–	93	99	–	–	–	–	100	–
Cn1cc(C(=O)Nc2ccccc2C2CCC(C)(C)CC2)c(C(F)F)n1 [Number 5, 1H-pyrazole-4-carboxamide, 3-(difluoromethyl)-N-(2-(4,4-dimethylcyclohexyl)phenyl]-1-methyl-]	59	99	–	–	–	–	–	52	79	–	92
C[C@H]1CCC[C@H](c2ccccc2NC(=O)c2cn(C)nc2C(F)F)C1 (relative stereo) [Number 3, 1H-pyrazole-4-carboxamide, 3-(difluoromethyl)-1-methyl-N-[2-(3-methylcyclohexyl)phenyl]-, trans-]	01	95	67	87	–	84	90	77	100	–	–
